According to PMC3338484:
“And” between values parts separate entries of the source, which are not always exact repeats. Equal values may be shown once.

Experiments:
[1] = target: T1, PaFolD (Pseudomonas aeruginosa, UniProt Q9I2U6); experiment: FolD enzyme assay (absorbance at 350 nm), IC50 determination; type: biochemical; details: for Hill coefficient: from PaFolD IC50 curves
T1 construct: hexa-histidine tag with TEV protease site (N, cleaved yes); made in house; host or cells: E. coli BL21 (DE3)
T1 sequence (Q9I2U6 whole entry): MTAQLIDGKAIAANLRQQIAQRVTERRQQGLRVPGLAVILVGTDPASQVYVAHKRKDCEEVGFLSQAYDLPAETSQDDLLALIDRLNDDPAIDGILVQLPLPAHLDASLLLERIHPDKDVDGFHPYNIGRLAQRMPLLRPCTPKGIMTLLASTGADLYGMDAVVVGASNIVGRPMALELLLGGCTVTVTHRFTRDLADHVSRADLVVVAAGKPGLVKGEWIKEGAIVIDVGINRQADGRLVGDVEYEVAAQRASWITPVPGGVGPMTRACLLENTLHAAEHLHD
Method: Enzyme activity was assayed by measuring the absorbance at 350 nm of the intermediate product in the reaction, N ^5,N ^10-methenyl-THF, following acidification of the reaction and consequent reconversion of the final product formyl-THF to the intermediate. Following optimization of the assay buffer and determination of the enzyme linearity, assays were carried out at room temperature in a 50 µL reaction volume containing 25 mM bicine, pH 7.9, 1 mM dithiothreitol, 0.05% CHAPS, 0.2 mg mL^−1 BSA, 1 nM recombinant FolD, […] NADP^+ and 35 µM N ^5,N ^10-methylene-THF. Michaelis constants for the two substrates (NADP^+ and N ^5,N ^10-methylene-THF) were determined in an end-point assay, using these buffer and enzyme conditions.
The HTS was performed with a compound collection of 79,029 diverse structures based around 4000 chemical scaffolds. All compounds were dissolved in 100% DMSO to a concentration of 3 mM. Single point inhibition assays were carried out at room temperature in clear, flat bottom, polystyrene, 384-well plates (Matrix). Each assay was performed in a 50 µL reaction volume as described above. A standard compound (0.5 µL in DMSO) was transferred to all assay plates using a Cartesian Hummingbird (Genomics Solutions) before 25 µL of a reaction mix, containing all assay components except NADP^+ and N ^5,N ^10-methylene-THF, was added to assay plates using a Thermo Scientific Well-Mate (Matrix). The reaction was initiated and stopped with the additions of 25 µL of substrate and 50 µL of 1 M HCl, respectively, again using a Well-Mate. The FolD assay was run at room temperature for 20 min and the signal was allowed to develop for 10 min before the absorbance of each well was read at 350 nm using an EnVision multilabel plate reader (PerkinElmer Life Sciences). ActivityBase (ID Business Solutions) was used for data processing and analysis.
Compounds of interest were cherry picked from the original library plates using a series of 10-point inhibitor curves (consisting of half-log serial dilutions of compound in DMSO) and prepared in 384-well plates using a JANUS workstation (PerkinElmer Life Sciences). Each compound plate produced 10-point inhibitor curves for 30 test compounds and two curves for LY374571, the standard compound in this screen (see following paragraph for inhibitor details). Following preparation of the inhibitor curves, assays were carried out as described above. ActivityBase was again used for data processing and analysis. All IC50 curve fitting was undertaken within ActivityBase XE utilizing the underlying ‘MATH IQ’ engine of XLfit version 5.1.0.0. A four-parameter logistic dose-response curve was utilized for compound potency determination.
Enzyme activity was assayed in an optimised buffer at 1 nM PaFolD. […] When saturating concentrations of either substrate or co-factor were required N ^5,N ^10-methylene-THF was used at 250 µM and NADP^+ at 1 mM. For screening the compound library N ^5,N ^10-methylene-THF was fixed at a concentration of 35 µM and NADP^+ was saturating at 1 mM and the assay was stopped after 20 minutes (within the linear range of the assay).

[2] = target: T1, PaFolD; experiment: Surface plasmon resonance (SPR) binding to biotinylated PaFolD; details: for binding to PaFolD by SPR: running buffer with 1 mM NADP+, 1% DMSO, data not shown; for rate of association (SPR): association measured for 1 min, LY374571 could not compete off this binding
Method: For analysis of compounds using SPR it was necessary to produce an expression system that provided a protein carrying a biotinylation acceptor peptide (BAP-tag). This BAP-tag peptide has the sequence 5′ - […] - 3′ and is specifically biotinylated by the E. coli biotin holoenzyme synthetase, BirA. The modified PaFolD was then purified as before. Subsequently 30 µM of BAP-tagged PaFolD was incubated at 37°C overnight in buffer C (10 mM Tris-HCl pH 7.5, 200 mM KCl, 5 mM MgCl2, 100 µM d-biotin) containing 500 µM ATP and 1 µM BirA. The sample was passed through a HisTrap HP column equilibrated with buffer A to remove BirA. The flow through was collected and concentrated (Amicon 10 kDa MWCO spin column) to remove free biotin. The incorporation of biotin was monitored by MALDI-TOF analysis performed at the University of Dundee ‘Fingerprints’ Proteomics Facility using an Applied Biosystems Voyager DE-STR spectrometer. The biotinylated protein was flash frozen at 10 mg mL^−1 in 50 mM Tris-HCl, 250 mM NaCl, 15% glycerol, pH 7.5 and stored at −80°C until required.
A Biacore T100 instrument (GE Healthcare) was used for all SPR experiments. Biotinylated PaFolD was diluted 50-fold into a running buffer containing 50 mM Tris-HCl, pH 7.5, 150 mM NaCl, 5 mM MgCl2, 1 mM DTT, 0.05% Tween 20, 1 mM NADP^+ and 1% DMSO and injected over a streptavidin chip (GE Healthcare) at a flow rate of 10 µL min^−1 for 10 min to obtain a density of ∼4,000 response units. Compounds DDD55519 and DDD61461 were injected in duplicates at three-fold concentration series 136 nM–11 µM at a flow rate 30 µL min^−1. Association was measured for 1 min and dissociation for 20 min. Compounds DDD32388 and DDD58331 were injected at three-fold concentration series of between 1.23 µM–100 µM at a flow rate 30 µL min^−1. Association was measured for 1 min and dissociation 2 min. Data were referenced from a blank streptavidin surface and blank injections of buffer. Processing was carried out using Scrubber 2 software (BioLogic Software, Australia).

[3] = target: T1, PaFolD; experiment: Differential scanning fluorimetry (DSF) thermal shift screen; type: binding; details: standards at 250 µM; 4 µM PaFolD, 4 mM NADP+
Excerpt: It was reasoned that such conditions would favour crystallization. In addition two compound libraries, the Maybridge fragment set and the Prestwick collection of biologically active molecules, were screened after first assessing the suitability of the method for PaFolD, the optimum buffer and cofactor conditions and the lowest concentration of protein that generated a strong signal as previously described for our laboratory. An Mx3005p RT PCR system (Stratagene) was used to monitor protein unfolding by the increase in fluorescence of SYPRO Orange dye (Invitrogen). Briefly, the enzyme was tested against 1000 compounds from the Maybridge Rule of Three (Ro3) fragment library and 1120 compounds from the Prestwick Chemical Library. Assays were carried out in 40 µL volumes with PaFolD at 4 µM, supplemented with 4 mM NADP^+ in 50 mM Tris-HCl, 250 mM NaCl, pH 7.5 in 96 well RT PCR plates (Abgene). […] After each 1°C increase the sample was excited at 492 nm and fluorescence emissions recorded at 610 nm. […]
In advance of performing a large-scale HTS, PaFolD was assayed combining DSF with the Prestwick Chemical Library of drug-like molecules (1,200 compounds) and a bespoke Maybridge RO3 fragment library of 1,000 compounds. […] A number of compounds in the Prestwick library gave apparent thermal shifts of approximately +10°C, however all of these were rejected due to their intrinsic fluorescence. […]

[4] = system: P. aeruginosa PAO1 ATCC 15692; experiment: Disc diffusion sensitivity testing; type: cell-based, Pseudomonas aeruginosa; details: for clearance in disc diffusion sensitivity assay: six dilutions, approximately 115 µg to 4.5 ng per disc, zones measured after 16 and 48 hours, data not shown
Method: Compounds identified by HTS were used in a disc diffusion sensitivity test against P. aeruginosa. Briefly a single colony of P. aeruginosa PAO1 ATCC 15692 was used to inoculate a 2 mL volume of LB media prior to overnight growth at 37°C. The bacteria were then diluted 1∶100 fold prior to 100 µL volumes plated onto Iso-Sensitest agar plates and dried in air for 5 minutes. Eight 3 mm discs were impregnated with 5 µl of compound, dissolved in DMSO, prior to loading onto each plate. Two controls were used per plate, one a 100% DMSO stock, the other a 10 µg stock of gentamycin. Six compound dilutions were tested per plate, ranging from approximately 115 µg to 4.5 ng. Three compounds with known antifolate activity were tested, namely methotrexate, LY354899 and LY374571 in addition to the three singletons, DDD32388, DDD55519 and DDD61461, and two of the biaryl sulphonamide series that had been identified. Plates were incubated at 37°C, and zones of inhibition measured after 16 and 48 hours.

[5] = system: HsFolD; details: slightly different assay conditions; read-out: IC50 against HsFolD; cited from earlier work
[6] = IC50 (μM), confirmed HTS hits, ten-point dose response, 30 µM to 1 nM

Compound: CCOc1nc(N)nc(N)c1S(=O)(=O)c1ccc(Cl)cc1 [DDD32388]
- IC50 [1, 6]: 0.9 µM
- Hill coefficient [1]: 1.6
- binding to PaFolD by SPR [2]: weak

Compound: Cc1[nH]c2c(C#N)cnn2c(=O)c1Cc1ccccc1 [DDD55519]
- IC50 [1, 6]: 3.8 µM
- Hill coefficient [1]: 1.2
- rate of association (SPR) [2]: slow rates of association
- binding to PaFolD by SPR [2]: confirmed

Compound: Oc1cc(C(F)(F)F)nc(SCc2c(F)cccc2Cl)n1 [DDD61461]
- IC50 [1, 6]: 2.5 µM
- Hill coefficient [1]: 2.6
- rate of association (SPR) [2]: slow rates of association
- binding to PaFolD by SPR [2]: confirmed

Compound: Nc1nc2c(c(=O)[nH]1)N1C(=O)N(c3ccc(C(=O)N[C@@H](CCC(=O)O)C(=O)O)cc3)CC1CN2 (stereo partly shown) [LY354899, 5,6,7,8-tetrahydro-N ^5,N ^10-carbonylfolic acid]
- thermal shift [3]: +9 °C
- clearance in disc diffusion sensitivity assay [4]: failed to give any clearance

Compound: Nc1nc(O)c(N)c(NC(=O)Nc2ccc(C(=O)N[C@H](CCC(=O)O)C(=O)O)cc2)n1 [LY374571, (2R)-2-[(4-{[(2,5-diamino-6-hydroxypyrimidin-4-yl)carbamoyl]amino}phenyl)formamido] pentanedioic acid]
- ΔTm at 250 µM [3]: 15 °C
- IC50 ([1]; IC50 against PaFolD, 1 nM PaFolD, 35 µM N5,N10-methylene-THF, 1 mM NADP+, 20 min): ~0.03 µM and 0.027 µM
- clearance in disc diffusion sensitivity assay [4]: failed to give any clearance
- IC50 [5]: 3 nM

Compound: NC(=O)c1ccc[n+]([C@@H]2O[C@H](COP(=O)([O-])OP(=O)(O)OC[C@H]3O[C@@H](n4cnc5c(N)ncnc54)[C@H](OP(=O)(O)O)[C@@H]3O)[C@@H](O)[C@H]2O)c1 [NADP^+]
- Km ([1]; 1 nM PaFolD, end-point assay, other substrate saturating, mean ± SD (n = 4), read-out: Michaelis constant (Km)): 179 ± 11 µM

Compound: gentamycin
- radius cleared (zone of inhibition) ([4]; 10 µg stock control disc, P. aeruginosa PAO1): 13 mm
